The source made the active and inactive calls.
Experiments:
Cytochrome P450 2C9 = Cytochrome P450 2C9 (Homo sapiens, UniProt P11712); settings: Potency
Trypsin = Trypsin (Sus scrofa, UniProt P00761); experiment: trypsin protease activity blockade – biochemical, quenched peptide fluorescence, cherry-pick, selectivity assay for Rce1 protease inhibitor project, dose response (AID 488789)
[1] = molecular target: T1, Voltage-gated N-type calcium channel alpha-1B subunit/Amyloid beta A4 precursor protein-binding family A member 1 (Homo sapiens, UniProt Q00975+Q02410); format: protein assay
T1 sequence (Q00975 whole entry): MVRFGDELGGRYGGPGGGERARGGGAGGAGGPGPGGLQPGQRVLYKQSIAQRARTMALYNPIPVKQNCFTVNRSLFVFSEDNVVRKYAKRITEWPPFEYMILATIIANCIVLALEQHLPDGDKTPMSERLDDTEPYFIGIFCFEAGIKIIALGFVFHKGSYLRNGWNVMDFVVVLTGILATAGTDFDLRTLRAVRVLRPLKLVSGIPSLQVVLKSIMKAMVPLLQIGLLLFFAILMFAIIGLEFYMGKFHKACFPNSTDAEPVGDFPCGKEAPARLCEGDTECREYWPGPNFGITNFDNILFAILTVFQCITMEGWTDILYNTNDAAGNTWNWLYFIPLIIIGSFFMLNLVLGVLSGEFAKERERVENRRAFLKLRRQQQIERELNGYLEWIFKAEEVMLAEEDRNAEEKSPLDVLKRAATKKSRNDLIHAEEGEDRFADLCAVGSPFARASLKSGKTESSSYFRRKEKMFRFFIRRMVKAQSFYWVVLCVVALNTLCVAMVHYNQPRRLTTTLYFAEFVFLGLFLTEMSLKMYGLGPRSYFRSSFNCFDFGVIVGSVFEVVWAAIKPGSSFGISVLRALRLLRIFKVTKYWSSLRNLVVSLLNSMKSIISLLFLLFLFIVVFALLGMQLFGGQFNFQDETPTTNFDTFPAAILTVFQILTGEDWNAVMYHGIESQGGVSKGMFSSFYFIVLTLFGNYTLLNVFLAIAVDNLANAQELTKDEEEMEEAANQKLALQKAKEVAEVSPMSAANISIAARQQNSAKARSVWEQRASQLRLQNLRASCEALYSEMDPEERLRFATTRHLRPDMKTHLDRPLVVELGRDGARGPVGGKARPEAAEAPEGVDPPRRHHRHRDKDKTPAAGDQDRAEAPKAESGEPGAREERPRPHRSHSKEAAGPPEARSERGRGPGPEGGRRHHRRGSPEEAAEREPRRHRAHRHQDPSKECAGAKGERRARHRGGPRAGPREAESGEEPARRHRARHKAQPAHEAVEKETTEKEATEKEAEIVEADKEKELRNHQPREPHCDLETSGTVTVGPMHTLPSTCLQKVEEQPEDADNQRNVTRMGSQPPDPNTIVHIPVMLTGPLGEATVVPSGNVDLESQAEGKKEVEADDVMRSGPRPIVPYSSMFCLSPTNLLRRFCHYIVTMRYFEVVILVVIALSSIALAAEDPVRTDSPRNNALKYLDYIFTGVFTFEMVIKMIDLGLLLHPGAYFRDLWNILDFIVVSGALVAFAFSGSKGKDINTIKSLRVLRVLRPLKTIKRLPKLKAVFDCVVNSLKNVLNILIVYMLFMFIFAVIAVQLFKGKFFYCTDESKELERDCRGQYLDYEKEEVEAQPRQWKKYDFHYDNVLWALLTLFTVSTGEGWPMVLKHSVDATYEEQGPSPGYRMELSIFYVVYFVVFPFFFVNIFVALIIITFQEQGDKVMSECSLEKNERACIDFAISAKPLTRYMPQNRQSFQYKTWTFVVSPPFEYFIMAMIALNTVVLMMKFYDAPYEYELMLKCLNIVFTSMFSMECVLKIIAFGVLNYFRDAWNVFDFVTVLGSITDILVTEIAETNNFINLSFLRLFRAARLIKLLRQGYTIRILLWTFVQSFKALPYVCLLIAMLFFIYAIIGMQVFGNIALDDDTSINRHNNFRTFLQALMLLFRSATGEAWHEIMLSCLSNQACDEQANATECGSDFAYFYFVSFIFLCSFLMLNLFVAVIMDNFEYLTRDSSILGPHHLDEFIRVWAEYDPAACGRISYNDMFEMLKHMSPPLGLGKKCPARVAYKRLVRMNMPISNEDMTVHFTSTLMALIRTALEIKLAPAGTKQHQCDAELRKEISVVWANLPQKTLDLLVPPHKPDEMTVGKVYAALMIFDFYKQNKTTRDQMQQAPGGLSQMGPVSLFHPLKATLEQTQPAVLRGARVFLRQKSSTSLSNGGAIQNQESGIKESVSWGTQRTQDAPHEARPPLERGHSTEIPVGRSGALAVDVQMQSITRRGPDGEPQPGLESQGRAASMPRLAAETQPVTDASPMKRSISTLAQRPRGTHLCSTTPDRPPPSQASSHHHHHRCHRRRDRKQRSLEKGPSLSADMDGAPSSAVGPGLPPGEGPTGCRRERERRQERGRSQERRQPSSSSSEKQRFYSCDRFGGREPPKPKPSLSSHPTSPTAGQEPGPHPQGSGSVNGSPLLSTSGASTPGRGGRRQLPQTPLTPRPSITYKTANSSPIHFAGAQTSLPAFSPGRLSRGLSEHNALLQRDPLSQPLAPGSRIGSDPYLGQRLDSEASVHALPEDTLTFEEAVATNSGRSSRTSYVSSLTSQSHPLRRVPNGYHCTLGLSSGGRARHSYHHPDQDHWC
T1 sequence (Q02410 whole entry): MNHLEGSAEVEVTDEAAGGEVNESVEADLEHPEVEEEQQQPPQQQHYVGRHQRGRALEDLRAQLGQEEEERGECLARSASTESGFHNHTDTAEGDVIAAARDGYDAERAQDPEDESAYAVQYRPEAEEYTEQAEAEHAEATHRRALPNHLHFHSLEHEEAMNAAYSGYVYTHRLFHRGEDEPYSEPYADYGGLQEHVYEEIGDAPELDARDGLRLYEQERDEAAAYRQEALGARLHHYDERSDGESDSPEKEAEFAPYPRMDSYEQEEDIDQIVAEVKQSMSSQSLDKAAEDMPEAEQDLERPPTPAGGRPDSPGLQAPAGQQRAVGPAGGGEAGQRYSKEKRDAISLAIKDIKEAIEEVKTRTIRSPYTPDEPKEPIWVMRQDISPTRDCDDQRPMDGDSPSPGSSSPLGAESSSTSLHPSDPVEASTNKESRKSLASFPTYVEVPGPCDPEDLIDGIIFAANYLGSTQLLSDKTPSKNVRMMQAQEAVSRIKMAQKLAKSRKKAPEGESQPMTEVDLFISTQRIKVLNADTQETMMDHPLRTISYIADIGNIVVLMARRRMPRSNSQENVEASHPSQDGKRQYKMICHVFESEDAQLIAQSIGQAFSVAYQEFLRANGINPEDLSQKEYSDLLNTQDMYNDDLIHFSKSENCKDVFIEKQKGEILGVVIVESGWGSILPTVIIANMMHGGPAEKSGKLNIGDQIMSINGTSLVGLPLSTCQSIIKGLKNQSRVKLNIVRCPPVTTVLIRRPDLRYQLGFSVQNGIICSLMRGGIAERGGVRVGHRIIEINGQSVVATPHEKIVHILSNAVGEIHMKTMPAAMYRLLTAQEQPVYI

Large T antigen = Large T antigen (Simian virus 40, UniProt P03070); format: functional, Betapolyomavirus macacae;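 also: Confirmatory-stage PubChem screen for compounds that inhibit SV40 T antigen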
[2] = molecular target: T1, Voltage-gated N-type calcium channel alpha-1B subunit/Amyloid beta A4 precursor protein-binding family A member 1; format: protein assay; remark: listed apart in the source
[3] = molecular target: Eukaryotic translation initiation factor 4E (Mus musculus, UniProt P63073); experiment: blockers of eIF4G binding by eIF4E – biochemical, TR-FRET, dose response (AID 855); format: functional;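 also: potency for disrupting eIF4E binding to eIF4GI seen as loss of FRET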
[4] = viability loss in THP-1 monocytes – THP-1 cells, cytotoxicity control for Vif-APOBEC3G degradation inhibitor project, dose response (AID 1117359); format: functional; settings: THP-1
Integrin alpha-L = Integrin alpha-L (Mus musculus, UniProt P24063); experiment: modulators of CD8 T cell-vesicle binding, dose response, powder samples, mouse 2C CD8+ cells (AID 504565); format: functional
[5] = molecular target: T2, Type-1 angiotensin II receptor (Homo sapiens, UniProt P30556); experiment: agonist activity at AGTR1 – cell-based, uHTS hits, selectivity assay for APJ receptor agonist project, dose response (AID 488865); format: functional;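 also: beta-arrestin recruitment to AT1 measured by enzyme fragment complementation luminescence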
T2 sequence (P30556 whole entry): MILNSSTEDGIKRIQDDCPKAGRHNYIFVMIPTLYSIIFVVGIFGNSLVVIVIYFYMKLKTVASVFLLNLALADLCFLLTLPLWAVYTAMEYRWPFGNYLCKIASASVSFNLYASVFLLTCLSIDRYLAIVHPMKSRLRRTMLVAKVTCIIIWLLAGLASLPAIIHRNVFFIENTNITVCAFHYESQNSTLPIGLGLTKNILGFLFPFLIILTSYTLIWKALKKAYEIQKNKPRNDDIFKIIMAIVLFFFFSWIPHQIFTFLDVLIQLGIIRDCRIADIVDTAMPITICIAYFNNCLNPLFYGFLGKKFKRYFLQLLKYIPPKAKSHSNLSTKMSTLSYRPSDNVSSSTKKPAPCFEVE

H9c2 = experiment: cells; format: functional, cell-based; settings: Rattus norvegicus, H9c2, Myocardium;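 also: confirmatory concentration-response retest of ultra-high-throughput screening hits for modulation of myocardial damage; cell death induced by hydrogen peroxide oxidative stress; compound pretreatment for 60 min then peroxide exposure for 2 h; potency is for protecting the cells against peroxide damage rather than for killing them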
[6] = molecular target: T3, Kappa-type opioid receptor (Homo sapiens, UniProt P41145); format: functional
Beta-galactosidase [7] = molecular target: T4, Beta-galactosidase (Escherichia coli, UniProt Q8VNN2); format: functional
T4 sequence (Q8VNN2 whole entry): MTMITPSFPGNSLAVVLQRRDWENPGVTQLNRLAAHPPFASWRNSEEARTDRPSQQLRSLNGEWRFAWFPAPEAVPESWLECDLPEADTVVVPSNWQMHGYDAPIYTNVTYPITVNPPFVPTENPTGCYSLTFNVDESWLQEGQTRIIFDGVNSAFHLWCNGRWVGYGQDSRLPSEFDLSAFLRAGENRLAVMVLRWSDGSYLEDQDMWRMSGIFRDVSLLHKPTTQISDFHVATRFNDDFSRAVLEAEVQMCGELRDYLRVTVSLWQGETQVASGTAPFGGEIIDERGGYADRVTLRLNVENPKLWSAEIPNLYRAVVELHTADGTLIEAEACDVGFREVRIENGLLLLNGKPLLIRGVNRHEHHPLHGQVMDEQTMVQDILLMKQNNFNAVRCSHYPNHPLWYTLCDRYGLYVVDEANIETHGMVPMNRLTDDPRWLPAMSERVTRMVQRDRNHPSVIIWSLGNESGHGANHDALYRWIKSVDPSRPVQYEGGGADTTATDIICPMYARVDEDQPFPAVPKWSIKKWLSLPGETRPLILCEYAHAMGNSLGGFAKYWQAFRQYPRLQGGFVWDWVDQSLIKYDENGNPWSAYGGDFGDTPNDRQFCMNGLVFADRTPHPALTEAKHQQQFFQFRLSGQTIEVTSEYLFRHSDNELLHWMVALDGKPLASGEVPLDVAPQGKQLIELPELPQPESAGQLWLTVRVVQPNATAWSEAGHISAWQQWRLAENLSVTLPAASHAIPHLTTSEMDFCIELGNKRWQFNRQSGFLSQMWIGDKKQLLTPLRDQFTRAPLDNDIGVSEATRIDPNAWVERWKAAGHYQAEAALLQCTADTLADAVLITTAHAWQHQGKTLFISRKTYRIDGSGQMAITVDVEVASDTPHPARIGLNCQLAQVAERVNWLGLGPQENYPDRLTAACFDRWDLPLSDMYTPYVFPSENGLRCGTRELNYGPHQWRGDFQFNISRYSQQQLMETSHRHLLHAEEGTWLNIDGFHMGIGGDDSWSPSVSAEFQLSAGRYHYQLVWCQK

[8] = molecular target: T3, Kappa-type opioid receptor; format: functional; remark: listed apart in the source
[9] = molecular target: T5, C-C chemokine receptor type 6 (Homo sapiens, UniProt P51684); experiment: antagonism of CCR6 beta-arrestin recruitment – cell-based, luminescent beta-arrestin readout, dose response (AID 504728); format: functional
T5 sequence (P51684 whole entry): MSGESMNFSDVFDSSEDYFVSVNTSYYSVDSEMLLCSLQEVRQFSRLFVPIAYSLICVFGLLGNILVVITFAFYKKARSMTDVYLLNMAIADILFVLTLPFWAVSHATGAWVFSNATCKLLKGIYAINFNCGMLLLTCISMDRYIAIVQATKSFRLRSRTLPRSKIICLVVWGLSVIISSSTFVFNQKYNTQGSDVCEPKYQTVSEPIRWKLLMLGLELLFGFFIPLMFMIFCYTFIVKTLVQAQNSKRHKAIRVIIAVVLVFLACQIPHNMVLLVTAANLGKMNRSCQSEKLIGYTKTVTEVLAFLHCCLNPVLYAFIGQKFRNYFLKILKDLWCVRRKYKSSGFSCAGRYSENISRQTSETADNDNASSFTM

Beta-galactosidase [10] = molecular target: T4, Beta-galactosidase; experiment: detection-enzyme interference by beta-gal modulators – biochemical, E. coli enzyme, set 3, artefact control for CCR6 antagonist project, dose response (AID 504712); format: functional
[11] = molecular target: T6, Polyadenylate-binding protein 1 (Homo sapiens, UniProt P11940); experiment: MLLE binding blockers, Cy5 peptide tracer – biochemical, fluorescence polarization, Cy5-PAM2 peptide, secondary, miRNA deadenylation inhibitor project, dose response (AID 602260); format: functional; settings: read-out: IC50_Mean
T6 sequence (P11940 whole entry, the tested form may be a part): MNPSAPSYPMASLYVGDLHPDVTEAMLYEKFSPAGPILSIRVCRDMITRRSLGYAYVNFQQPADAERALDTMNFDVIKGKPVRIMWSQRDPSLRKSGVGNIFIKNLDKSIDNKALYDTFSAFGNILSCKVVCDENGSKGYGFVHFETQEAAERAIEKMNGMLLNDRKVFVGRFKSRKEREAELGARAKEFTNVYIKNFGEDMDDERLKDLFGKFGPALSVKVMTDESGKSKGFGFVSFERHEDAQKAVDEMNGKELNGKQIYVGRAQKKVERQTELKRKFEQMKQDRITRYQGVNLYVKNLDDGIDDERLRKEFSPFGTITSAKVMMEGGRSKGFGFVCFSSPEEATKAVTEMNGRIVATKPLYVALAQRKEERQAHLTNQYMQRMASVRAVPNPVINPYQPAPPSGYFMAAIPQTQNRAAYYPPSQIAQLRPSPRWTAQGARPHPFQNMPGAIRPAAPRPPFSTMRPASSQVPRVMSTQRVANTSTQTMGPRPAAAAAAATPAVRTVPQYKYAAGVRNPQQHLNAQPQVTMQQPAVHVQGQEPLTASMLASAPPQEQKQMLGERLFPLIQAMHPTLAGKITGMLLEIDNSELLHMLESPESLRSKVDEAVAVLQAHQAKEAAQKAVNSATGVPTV

[12] = molecular target: T6, Polyadenylate-binding protein 1; experiment: MLLE domain peptide-binding blockers, IC50 – biochemical, fluorescence polarization, FITC-PAM2 peptide, dose response (AID 602259); format: functional; settings: read-out: IC50_Mean
[13] = molecular target: T7, Short transient receptor potential channel 4 (Mus musculus, UniProt Q9QUQ5); experiment: calcium entry via TRPC4 opening agents – cell-based, HEK293 TRPC4/mu-opioid, Fluo-4 calcium, dose response (AID 434937); format: functional
T7 sequence (Q9QUQ5 whole entry): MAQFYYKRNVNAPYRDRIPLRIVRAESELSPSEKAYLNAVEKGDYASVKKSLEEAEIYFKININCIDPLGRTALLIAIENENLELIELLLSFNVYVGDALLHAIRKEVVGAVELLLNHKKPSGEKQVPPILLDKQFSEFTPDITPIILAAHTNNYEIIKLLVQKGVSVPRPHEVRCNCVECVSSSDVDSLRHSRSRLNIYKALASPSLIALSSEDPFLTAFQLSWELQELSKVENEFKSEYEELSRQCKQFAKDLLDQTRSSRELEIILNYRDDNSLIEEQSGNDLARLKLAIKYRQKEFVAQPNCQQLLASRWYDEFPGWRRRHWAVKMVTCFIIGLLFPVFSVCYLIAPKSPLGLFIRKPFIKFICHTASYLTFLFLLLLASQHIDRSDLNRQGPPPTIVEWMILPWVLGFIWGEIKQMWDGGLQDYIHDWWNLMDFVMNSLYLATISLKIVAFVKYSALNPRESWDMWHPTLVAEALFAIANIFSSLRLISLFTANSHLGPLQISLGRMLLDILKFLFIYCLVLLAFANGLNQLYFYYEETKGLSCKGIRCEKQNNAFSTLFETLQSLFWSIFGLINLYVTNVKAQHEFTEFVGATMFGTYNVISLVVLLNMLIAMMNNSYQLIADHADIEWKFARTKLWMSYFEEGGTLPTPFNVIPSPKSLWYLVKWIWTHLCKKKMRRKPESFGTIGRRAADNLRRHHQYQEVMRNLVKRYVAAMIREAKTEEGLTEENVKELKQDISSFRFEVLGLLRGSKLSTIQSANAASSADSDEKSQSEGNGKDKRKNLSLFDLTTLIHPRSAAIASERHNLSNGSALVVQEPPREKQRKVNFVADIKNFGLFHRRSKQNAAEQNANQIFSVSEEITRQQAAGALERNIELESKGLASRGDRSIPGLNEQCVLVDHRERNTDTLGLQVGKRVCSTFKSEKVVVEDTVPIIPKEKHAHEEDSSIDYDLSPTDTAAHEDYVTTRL

[14] = molecular target: T8, DNA repair and recombination protein RAD54-like (Homo sapiens, UniProt Q92698); experiment: RAD54 Holliday junction migration blockers – biochemical, fluorescence, cherry-picked samples, dose series, confirmation (AID 651657); format: functional
T8 sequence (Q92698 whole entry): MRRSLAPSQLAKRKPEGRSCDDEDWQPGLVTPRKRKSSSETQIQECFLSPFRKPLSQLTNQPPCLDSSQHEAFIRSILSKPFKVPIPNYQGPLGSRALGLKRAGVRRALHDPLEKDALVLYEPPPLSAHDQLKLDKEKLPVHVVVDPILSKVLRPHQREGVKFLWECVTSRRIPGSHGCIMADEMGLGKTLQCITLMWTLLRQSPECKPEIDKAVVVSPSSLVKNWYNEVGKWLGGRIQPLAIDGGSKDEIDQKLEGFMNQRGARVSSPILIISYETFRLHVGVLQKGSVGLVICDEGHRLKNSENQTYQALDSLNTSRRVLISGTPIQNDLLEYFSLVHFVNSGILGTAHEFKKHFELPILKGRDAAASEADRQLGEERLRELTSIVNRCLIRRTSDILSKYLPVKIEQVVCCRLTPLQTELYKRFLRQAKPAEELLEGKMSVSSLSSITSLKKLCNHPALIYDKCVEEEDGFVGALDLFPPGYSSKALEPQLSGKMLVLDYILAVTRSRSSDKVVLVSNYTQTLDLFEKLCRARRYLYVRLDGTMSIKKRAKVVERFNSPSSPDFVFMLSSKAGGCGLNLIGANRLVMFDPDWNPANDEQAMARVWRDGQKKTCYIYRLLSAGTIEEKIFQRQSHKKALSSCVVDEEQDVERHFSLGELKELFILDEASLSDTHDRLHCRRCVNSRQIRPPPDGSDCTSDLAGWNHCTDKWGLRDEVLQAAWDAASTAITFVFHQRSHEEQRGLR

[15] = THP-1 cell cytotoxicity, dose response, cytotoxicity control for non-replicating M. tuberculosis project (AID 489025); format: functional
cells = format: functional

Trypsin, sequence (P00761 whole entry): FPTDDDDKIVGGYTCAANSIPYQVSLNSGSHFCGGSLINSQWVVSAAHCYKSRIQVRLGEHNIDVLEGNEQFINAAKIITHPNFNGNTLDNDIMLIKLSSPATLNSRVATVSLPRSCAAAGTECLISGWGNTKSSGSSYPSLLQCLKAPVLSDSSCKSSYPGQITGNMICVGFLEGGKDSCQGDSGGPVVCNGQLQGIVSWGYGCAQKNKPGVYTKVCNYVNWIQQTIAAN

COc1ccc([C@@H]2OC[C@]3(COC(C)=O)[C@H](C)C=C(C)[C@@H]2[C@H]3C)cc1
AC50 (Cytochrome P450 2C9): 20 µM (inconclusive)

Nc1c(C(=O)NCc2ccccc2)sc2nc(N3CCOCC3)c3c(c12)CCCC3
AC50 (Trypsin): 14.8 µM (active)

O=C(CSc1nc2ccccc2n1CCc1ccccc1)c1ccc(O)c(O)c1
IC50 [1]: 9.4 µM (active)
IC50 (Large T antigen): 35.9 µM (active)
IC50 [2]: > 50 µM (inactive)
IC50 [3]: 23.7 µM (active)
CC50 [4]: > 40 µM (active)

O=C(NCC1CCCCC1)c1ccc(Cl)c(S(=O)(=O)N2CCOCC2)c1
EC50 (Integrin alpha-L): 20.1 µM (active)

CCOc1ccc2nc(O)c(CN(CCO)C(c3nnnn3C3CCCCC3)C(C)C)cc2c1 (configuration not stated)
EC50 [5]: > 100 µM (inactive)
IC50 (H9c2): > 79 µM (inactive)

COc1ccc(NC(=S)NC(NC(=O)c2ccccc2Cl)C(Cl)(Cl)Cl)c([N+](=O)[O-])c1 (configuration not stated)
IC50 [6]: 7.41 µM (active)
EC50 (Beta-galactosidase [7]): > 31.5 µM (inactive)
IC50 [8]: 5.11 µM
IC50 [9]: > 66.6 µM (inactive)
IC50 (Beta-galactosidase [10]): > 66.6 µM (inactive)
IC50 [11]: > 66 µM (inactive)
IC50 [12]: > 66 µM (inactive)

Cc1ccc(C)c(CN2CCC(CNC(=O)CCc3nnc4ccc(N5CCCCC5)nn34)CC2)c1
EC50 [13]: 0.299 µM (active)

COc1cccc2sc3ccc(NCCC4CCCN4C)cc3c(=O)c12 (configuration not stated)
EC50 [5]: > 100 µM (inactive)
AC50 [14]: 22.8 µM (active)

O=C(CCS(=O)(=O)c1ccccc1)Nc1nnc(-c2ccco2)o1
CC50 [15]: > 40 µM (active)
IC50 (cells): 48.6 µM (active)

— ChEMBL document CHEMBL1201862, “PubChem BioAssay data set” (2004)
